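Cells were grown in 96-well plates and exposed to each compound for 48 hours at five concentrations; endpoints were interpolated linearly between bracketing concentrations, or set to the highest concentration if not reached. GI50: concentration for 50% inhibition of growth. TGI: total growth inhibition.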 Where a SMILES comes first, the peptide text is derived from it.
Columns and labels:
Test in all cases: NCI anticancer screen, dose series, 48 h
NCI/ADR-RES ovarian = system: NCI/ADR-RES ovarian
SN12C renal = system: SN12C renal
BT-549 breast = system: BT-549 breast
EKVX NSCLC = system: EKVX NSCLC
CCRF-CEM leukemia = system: CCRF-CEM leukemia
NCI-H226 lung = system: NCI-H226 lung
UACC-257 melanoma = system: UACC-257 melanoma
SF-295 CNS = system: SF-295 CNS
UO-31 renal = system: UO-31 renal
HOP-62 NSCLC = system: HOP-62 NSCLC

SMILES | TGI (NCI/ADR-RES ovarian) [µM] | TGI (SN12C renal) [µM] | TGI (BT-549 breast) [µM] | TGI (EKVX NSCLC) [µM] | TGI (CCRF-CEM leukemia) [µM] | TGI (NCI-H226 lung) [µM] | TGI (UACC-257 melanoma) [µM] | TGI (SF-295 CNS) [µM] | TGI (UO-31 renal) [µM] | TGI (HOP-62 NSCLC) [µM] | GI50 (NCI/ADR-RES ovarian) [µM] | GI50 (SN12C renal) [nM] | GI50 (BT-549 breast) [nM] | GI50 (EKVX NSCLC) [µM] | GI50 (CCRF-CEM leukemia) [µM] | GI50 (UO-31 renal) [nM] | GI50 (NCI-H226 lung) [nM] | GI50 (UACC-257 melanoma) [µM] | GI50 (SF-295 CNS) [nM] | GI50 (HOP-62 NSCLC) [nM]
COC(CN(C)C(=O)C(C)NC(=O)c1ccccc1)OC (stereo not given) | > 100 | > 100 | > 100 | > 100 | > 100 | > 100 | > 100 | > 100 | – | – | – | – | – | – | – | – | – | – | – | –
Cc1ccc2c(c1)SSSSS2 | 66.7 | 46.7 | 39.1 | 65.1 | 17 | – | 38.5 | 37 | 33 | 38 | – | – | – | – | – | – | – | – | – | –
CCc1ccc(-c2nnc(COc3ccc(-c4nc5ccc(C)cc5[nH]4)cc3OC)o2)cc1 | 37.5 | 5.52 | 4.34 | > 100 | > 100 | 4.28 | 16.2 | 5.75 | 3.17 | 6.46 | 3.28 | 2200 | 1960 | 4.14 | 3.06 | 1630 | 2010 | 3.57 | 2330 | 2440
CC1=C(/C=C/C(C)=C/C=C/C(C)=C/C(=O)OCC2OC(n3cc(F)c(=O)[nH]c3=O)CC2OC(=O)/C=C(C)/C=C/C=C(C)/C=C/C2=C(C)CCCC2(C)C)C(C)(C)CCC1 (stereo not given) | > 100 | > 31.6 | > 76.3 | > 100 | > 28.8 | > 69.3 | > 92.1 | > 40.2 | > 26.3 | > 27.9 | – | – | – | – | – | – | – | – | – | –
c1ccc(N=C2c3ccccc3CN2c2ccccc2)cc1 | > 100 | > 100 | > 100 | > 100 | > 100 | > 100 | > 100 | > 100 | > 100 | > 100 | – | – | – | – | – | – | – | – | – | –
CC1C(c2ccc(F)cc2)c2cc3c(cc2OC1N1CCCC1)OCO3 (stereo not given) | > 100 | > 100 | – | > 100 | > 100 | – | > 100 | > 100 | > 100 | > 100 | – | – | – | – | – | – | – | – | – | –
CC(=O)/C(C=Nc1c(C)n(C)n(-c2ccccc2)c1=O)=C(/C)O | > 100 | > 100 | > 100 | > 100 | > 100 | > 100 | > 100 | > 100 | > 100 | – | – | – | – | – | – | – | – | – | – | –
CC(C)(C)OC(=O)[N+](=N)C(=O)C1CCC(=O)N1C(=O)OCc1ccccc1 (stereo not given) | > 100 | > 100 | > 100 | > 100 | > 100 | > 100 | – | > 100 | > 100 | > 100 | – | – | – | – | – | – | – | – | – | –
CCCCCC(CN1CCOCC1)C(=O)/C=C/c1ccccc1 (stereo not given) | – | 10.5 | – | 22.5 | 6.72 | 9.31 | 7.83 | 10.2 | 20.1 | 16.9 | – | – | – | – | – | – | – | – | – | –
O=C(Cn1c(=O)ccn(C2OC(CO)C(O)C2F)c1=O)c1ccc(F)cc1 (stereo not given) | > 100 | > 100 | – | > 100 | > 100 | > 100 | > 100 | > 100 | > 100 | > 100 | – | – | – | – | – | – | – | – | – | –
CC1=C2C(O)C(C(C)C(=O)NCC(C)C)CCC2(C)C=CC1=O (stereo not given) | > 100 | > 100 | – | > 100 | > 100 | > 100 | > 100 | > 100 | > 100 | > 100 | – | – | – | – | – | – | – | – | – | –
CN(C1=NCCO1)c1cccc2ccccc12 | > 10 | > 10 | – | > 10 | > 10 | > 10 | – | > 10 | > 10 | > 10 | – | – | – | – | – | – | – | – | – | –
O=c1[nH]c2ccc(C(F)(F)F)cc2nc1-c1ccccc1 | > 100 | > 100 | > 100 | > 100 | > 100 | – | > 100 | > 100 | – | > 100 | – | – | – | – | – | – | – | – | – | –
CNC(=S)/C(=N\Nc1nc[nH]c1C(N)=O)C(N)=S | > 64.5 | 18.9 | > 100 | > 100 | – | > 33.9 | > 100 | 41.6 | 18.3 | > 100 | – | – | – | – | – | – | – | – | – | –
CCOC(=O)C1(C(=O)OCC)C[C@]23OCCC(=O)[C@H]2[C@H]2C(=O)OC(C)(C)O[C@]23C1 | > 100 | > 100 | – | > 100 | > 100 | – | > 100 | > 100 | > 100 | > 100 | – | – | – | – | – | – | – | – | – | –
CC(=O)ON(OC(C)=O)c1ccc(C)cc1 | > 100 | – | > 100 | > 100 | – | – | > 100 | > 100 | > 100 | > 100 | – | – | – | – | – | – | – | – | – | –
O=c1c(O)c(-c2ccc(O)cc2O)oc2cc(O)cc(O)c12 | > 100 | > 100 | – | > 100 | > 100 | > 100 | > 100 | > 100 | > 100 | > 100 | – | – | – | – | – | – | – | – | – | –
NC(=O)NC(=O)c1cnccn1 | > 100 | > 100 | – | > 100 | > 100 | > 100 | > 100 | > 100 | > 100 | > 100 | – | – | – | – | – | – | – | – | – | –
CC1NC(=O)CNC(=O)CNC(=O)C(Cc2ccc(O)cc2)NC(=O)C(C(C)C)NC(=O)C(C)NC1=O (stereo not given) (cyclo(GGAAVY); configuration not given here) | > 100 | > 100 | – | > 100 | > 100 | > 100 | > 100 | > 100 | > 100 | > 100 | – | – | – | – | – | – | – | – | – | –
COc1ccc(/C=C2\C=Cc3ccccc32)cc1OC | > 100 | > 100 | – | > 100 | > 100 | > 100 | > 100 | > 100 | – | > 100 | – | – | – | – | – | – | – | – | – | –
c1ccc(COc2ccc(CC3SCCCS3)cc2)cc1 | – | – | – | > 100 | > 100 | – | > 100 | > 100 | – | > 100 | – | – | – | – | – | – | – | – | – | –
Cc1cc(-c2ccc(C(=O)O)[nH]2)on1 | 75.9 | – | > 100 | > 100 | – | – | > 100 | > 100 | > 100 | > 100 | – | – | – | – | – | – | – | – | – | –
CC/C(=N\NC(=O)c1cccnc1)c1ccc2c(c1)OCCO2 | > 100 | > 100 | > 100 | > 100 | > 100 | > 100 | – | > 100 | > 100 | > 100 | – | – | – | – | – | – | – | – | – | –

Reference: PubChem BioAssay (NCI)
